From patent publication US11608330B2, “Methylamine derivatives as lysysl oxidase inhibitors for the treatment of cancer” (The Institute of Cancer Research: Royal Cancer Hospital, priority 2016, dated 2023)

Assays:
[1] = test system: TGF beta signalling (pSMAD2); type: cell-based
[2] = test system: MATN2 in MDA-MB-231 cells; experiment: MATN2 level in MDA-MB-231 cells; type: cell-based, human; settings: at a much higher concentration
Procedure: Proteins were extracted from cultured cells using cell lysis buffer (Cell Signalling Technology) with the addition of protease and phosphatase inhibitor cocktails (Pierce). Protein concentrations were measured using Pierce 660 nm protein assay reagent and SpectaMax M5 plate reader. […] Separated proteins were transferred to nitrocellulose membranes using a Trans-Blot turbo transfer system (Bio-Rad). Following blocking with Odyssey blocking buffer (Li—COR), membranes were incubated with two primary antibodies of different species at 4° C. over night. Corresponding fluorescence secondary antibodies (Li—COR) of different excitation and emission wavelengths were used to visualize the protein of interest on an Odyssey CLx infrared imaging system (Li—COR). Quantification of band fluorescent intensity was achieved using Li-COR ImageStudio. The following primary antibodies were used, anti-LOX (Sigma), anti-human MATN2 (R&D), anti-EGFR and anti-pY1068EGFR (Cell Signalling Technology), and anti-GAPDH (Millipore).

N#CCCN [BAPN, beta-aminopropionitrile]
TGF beta signalling as indicated by pSMAD2 [1]: increased TGF beta signalling
reduction of MATN2 [2]: same effect
